Results reported in patent US20250154141A1 (University of Florida Research Foundation, Incorporated, priority 2021, published 2025).
pIC50: −log10 of the molar value. Where two headings read alike, the source gives them in different places.

Legend:
MOLT-4 = assay: Cell viability assay (MTS) in MOLT-4 cells; type: cell-based; conditions: Homo sapiens, MOLT-4
Description: (§1) Acute lymphoblastic leukemia cells (MOLT-4 and RS4; 11) were incubated with increasing concentrations of Bcl-xL degraders for 48 h. Cell viability was measured by tetrazolium-based MTS assay.

RS4; 11 = assay: Cell viability assay (MTS) in RS4; 11 cells; type: cell-based; conditions: Homo sapiens, RS4-11
Description: as §1

[1] = Table 2, 48 hr, MTS, read-out: Anti-Cancer Activity IC50 (48 hr) MOLT-4
[2] = Table 2, 48 hr, MTS, read-out: Anti-Cancer Activity IC50 (48 hr) RS4, 11
[3] = Table 4, 48 h, read-out: MOLT-4 48 h IC50
[4] = Table 4, 48 h, read-out: RS4 48 h IC50

SMILES	pIC50 (MOLT-4; [1])	pIC50 (RS4; 11; [2])	pIC50 (MOLT-4; [3])	pIC50 (RS4; 11; [4])
Cc1ncsc1-c1ccc([C@H](C)NC(=O)[C@@H]2C[C@@H](O)CN2C(=O)[C@@H](NC(=O)CCCCCCC(=O)N2CCN(C[C@]3(C)CCC(c4ccc(Cl)cc4)=C(CN4CCN(c5ccc(C(=O)NS(=O)(=O)c6ccc(N[C@H](CCN7CC8CCC7C8)CSc7ccccc7)c(S(=O)(=O)C(F)(F)F)c6)cc5)CC4)C3)CC2)C(C)(C)C)cc1 (stereo partly drawn) [Compound 67]	> 7.70	> 7.70		
Cc1ncsc1-c1ccc([C@H](C)NC(=O)[C@@H]2C[C@@H](O)CN2C(=O)[C@@H](NC(=O)CCCCCCC(=O)N2CCC(C3CCN(CC4(C)CCC(c5ccc(Cl)cc5)=C(CN5CCN(c6ccc(C(=O)NS(=O)(=O)c7ccc(N[C@H](CCN8C[C@H]9C[C@@H]8CO9)CSc8ccccc8)c(S(=O)(=O)C(F)(F)F)c7)cc6)CC5)C4)CC3)CC2)C(C)(C)C)cc1 (stereo partly drawn) [Compound 70]	> 7.70	> 7.70		
Cc1ncsc1-c1ccc([C@H](C)NC(=O)[C@@H]2C[C@@H](O)CN2C(=O)[C@@H](NC(=O)CCCCCCC(=O)N2CCN(C[C@]3(C)CCC(c4ccc(Cl)cc4)=C(CN4CCN(c5ccc(C(=O)NS(=O)(=O)c6ccc(N[C@H](CCN7CCc8cccnc8C7)CSc7ccccc7)c(S(=O)(=O)C(F)(F)F)c6)cc5)CC4)C3)CC2)C(C)(C)C)cc1 [Compound 71]	6.30 to 7.00	7.00 to 7.70		
Cc1ncsc1-c1ccc([C@H](C)NC(=O)[C@@H]2C[C@@H](O)CN2C(=O)[C@@H](NC(=O)CCCCCNC(=O)c2ccc(N3CCN(C[C@]4(C)CCC(c5ccc(Cl)cc5)=C(CN5CCN(c6ccc(C(=O)NS(=O)(=O)c7ccc(N[C@H](CCN8C[C@H]9C[C@@H]8CO9)CSc8ccccc8)c(S(=O)(=O)C(F)(F)F)c7)cc6)CC5)C4)CC3)nc2)C(C)(C)C)cc1 [Compound 72]	> 7.70	> 7.70	8.36	8.15
Cc1ncsc1-c1ccc([C@H](C)NC(=O)[C@@H]2C[C@@H](O)CN2C(=O)[C@@H](NC(=O)CCCCCCNC(=O)c2ccc(N3CCN(C[C@]4(C)CCC(c5ccc(Cl)cc5)=C(CN5CCN(c6ccc(C(=O)NS(=O)(=O)c7ccc(N[C@H](CCN8C[C@H]9C[C@@H]8CO9)CSc8ccccc8)c(S(=O)(=O)C(F)(F)F)c7)cc6)CC5)C4)CC3)nc2)C(C)(C)C)cc1 [Compound 73]	> 7.70	> 7.70	8.15	7.86
Cc1ncsc1-c1ccc([C@H](C)NC(=O)[C@@H]2C[C@@H](O)CN2C(=O)[C@@H](NC(=O)CCCCCCCNC(=O)c2ccc(N3CCN(C[C@]4(C)CCC(c5ccc(Cl)cc5)=C(CN5CCN(c6ccc(C(=O)NS(=O)(=O)c7ccc(N[C@H](CCN8C[C@H]9C[C@@H]8CO9)CSc8ccccc8)c(S(=O)(=O)C(F)(F)F)c7)cc6)CC5)C4)CC3)nc2)C(C)(C)C)cc1 [Compound 74]	> 7.70	7.00 to 7.70		
Cc1ncsc1-c1ccc([C@H](C)NC(=O)[C@@H]2C[C@@H](O)CN2C(=O)[C@@H](NC(=O)CC2CCN(CC(=O)N3CCN(C[C@]4(C)CCC(c5ccc(Cl)cc5)=C(CN5CCN(c6ccc(C(=O)NS(=O)(=O)c7ccc(N[C@H](CCN8CCCOCC8)CSc8ccccc8)c(S(=O)(=O)C(F)(F)F)c7)cc6)CC5)C4)CC3)CC2)C(C)(C)C)cc1 [Compound 75]	7.00 to 7.70	7.00 to 7.70		
Cc1ncsc1-c1ccc([C@H](C)NC(=O)[C@@H]2C[C@@H](O)CN2C(=O)[C@@H](NC(=O)CN2CCC(CC(=O)N3CCN(C[C@]4(C)CCC(c5ccc(Cl)cc5)=C(CN5CCN(c6ccc(C(=O)NS(=O)(=O)c7ccc(N[C@H](CCN8CCCOCC8)CSc8ccccc8)c(S(=O)(=O)C(F)(F)F)c7)cc6)CC5)C4)CC3)CC2)C(C)(C)C)cc1 [Compound 76]	> 7.70	> 7.70		
Cc1ncsc1-c1ccc([C@H](C)NC(=O)[C@@H]2C[C@@H](O)CN2C(=O)[C@@H](NC(=O)CCCCCNC(=O)c2cnc(N3CCN(C[C@]4(C)CCC(c5ccc(Cl)cc5)=C(CN5CCN(c6ccc(C(=O)NS(=O)(=O)c7ccc(N[C@H](CCN8CCCOCC8)CSc8ccccc8)c(S(=O)(=O)C(F)(F)F)c7)cc6)CC5)C4)CC3)nc2)C(C)(C)C)cc1 [Compound 78]	> 7.70	7.00 to 7.70		
Cc1ncsc1-c1ccc([C@H](C)NC(=O)[C@@H]2C[C@@H](O)CN2C(=O)[C@@H](NC(=O)CCCCCNC(=O)c2ccc(N3CCN(C[C@]4(C)CCC(c5ccc(Cl)cc5)=C(CN5CCN(c6ccc(C(=O)NS(=O)(=O)c7ccc(N[C@H](CCN8CCCOCC8)CSc8ccccc8)c(S(=O)(=O)C(F)(F)F)c7)cc6)CC5)C4)CC3)nn2)C(C)(C)C)cc1 [Compound 79]	> 7.70	> 7.70		
Cc1ncsc1-c1ccc([C@H](C)NC(=O)[C@@H]2C[C@@H](O)CN2C(=O)[C@@H](NC(=O)CCCCCNC(=O)c2ccc(CN3CCN(C[C@]4(C)CCC(c5ccc(Cl)cc5)=C(CN5CCN(c6ccc(C(=O)NS(=O)(=O)c7ccc(N[C@H](CCN8CCCOCC8)CSc8ccccc8)c(S(=O)(=O)C(F)(F)F)c7)cc6)CC5)C4)CC3)nc2)C(C)(C)C)cc1 [Compound 80]	> 7.70	> 7.70		
Cc1ncsc1-c1ccc([C@H](C)NC(=O)[C@@H]2C[C@@H](O)CN2C(=O)[C@@H](NC(=O)CCCCCCC(=O)N2CCN(C[C@]3(C)CCC(c4ccc(Cl)cc4)=C(CN4CCN(c5ccc(C(=O)NS(=O)(=O)c6ccc(N[C@H](CCN7CCCOCC7)CSc7ccccc7)c(S(=O)(=O)C(F)(F)F)c6)cc5)CC4)C3)C[C@H]2C)C(C)(C)C)cc1 [Compound 81]	> 7.70	> 7.70		
Cc1ncsc1-c1ccc([C@H](C)NC(=O)[C@@H]2C[C@@H](O)CN2C(=O)[C@@H](NC(=O)CCCCCCC(=O)N2CCN(C[C@]3(C)CCC(c4ccc(Cl)cc4)=C(CN4CCN(c5ccc(C(=O)NS(=O)(=O)c6ccc(N[C@H](CCN7CCCOCC7)CSc7ccccc7)c(S(=O)(=O)C(F)(F)F)c6)cc5)CC4)C3)C[C@@H]2C)C(C)(C)C)cc1 [Compound 82]	> 7.70	7.00 to 7.70		
Cc1ncsc1-c1ccc([C@H](C)NC(=O)[C@@H]2C[C@@H](O)CN2C(=O)[C@@H](NC(=O)CCCCCCC(=O)N2CCN(C[C@]3(C)CCC(c4ccc(Cl)cc4)=C(CN4CCN(c5ccc(C(=O)NS(=O)(=O)c6ccc(N[C@H](CCN7CCCC(F)(F)C7)CSc7ccccc7)c(S(=O)(=O)C(F)(F)F)c6)cc5)CC4)C3)CC2)C(C)(C)C)cc1 [Compound 88]	5.00 to 6.30	5.00 to 6.30		
Cc1ncsc1-c1ccc([C@H](C)NC(=O)[C@@H]2C[C@@H](O)CN2C(=O)[C@@H](NC(=O)CCCCCCC(=O)N2CCN(C[C@]3(C)CCC(c4ccc(Cl)cc4)=C(CN4CCN(c5ccc(C(=O)NS(=O)(=O)c6ccc(N[C@H](CCN7CCOC[C@H]7C)CSc7ccccc7)c(S(=O)(=O)C(F)(F)F)c6)cc5)CC4)C3)CC2)C(C)(C)C)cc1 [Compound 89, (2S,4R)-1-((S)-2-(8-(4-(((R)-4′-chloro-4-methyl-6-((4-(4-(((4-(((R)-4-((R)-3-methylmorpholino)-1-(phenylthio)butan-2-yl)amino)-3-((trifluoromethyl)sulfonyl)phenyl)sulfonyl)carbamoyl)phenyl)piperazin-1-yl)methyl)-2,3,4,5-tetrahydro-[1,1′-biphenyl]-4-yl)methyl)piperazin-1-yl)-8-oxooctanamido)-3,3-dimethylbutanoyl)-4-hydroxy-N—((S)-1-(4-(4-methylthiazol-5-yl)phenyl)ethyl)pyrrolidine-2-carboxamide]	7.00 to 7.70	> 7.70		
Cc1ncsc1-c1ccc([C@H](C)NC(=O)[C@@H]2C[C@@H](O)CN2C(=O)[C@@H](NC(=O)CCCCCCC(=O)N2CCN(C[C@]3(C)CCC(c4ccc(Cl)cc4)=C(CN4CCN(c5ccc(C(=O)NS(=O)(=O)c6ccc(N[C@H](CCN7CCOC(C)C7)CSc7ccccc7)c(S(=O)(=O)C(F)(F)F)c6)cc5)CC4)C3)CC2)C(C)(C)C)cc1 (stereo partly drawn) [Compound 91, (2S,4R)-1-((2S)-2-(8-(4-(((4R)-4′-chloro-4-methyl-6-((4-(4-(((4-(((2R)-4-(2-methylmorpholino)-1-(phenylthio)butan-2-yl)amino)-3-((trifluoromethyl)sulfonyl)phenyl)sulfonyl)carbamoyl)phenyl)piperazin-1-yl)methyl)-2,3,4,5-tetrahydro-[1,1′-biphenyl]-4-yl)methyl)piperazin-1-yl)-8-oxooctanamido)-3,3-dimethylbutanoyl)-4-hydroxy-N—((S)-1-(4-(4-methylthiazol-5-yl)phenyl)ethyl)pyrrolidine-2-carboxamide]	> 7.70	> 7.70		
Cc1ncsc1-c1ccc([C@H](C)NC(=O)[C@@H]2C[C@@H](O)CN2C(=O)[C@@H](NC(=O)CCCCCCC(=O)N2CCN(C[C@]3(C)CCC(c4ccc(Cl)cc4)=C(CN4CCN(c5ccc(C(=O)NS(=O)(=O)c6ccc(N[C@H](CCN7CCOCC78CC8)CSc7ccccc7)c(S(=O)(=O)C(F)(F)F)c6)cc5)CC4)C3)CC2)C(C)(C)C)cc1 [Compound 92]	5.00 to 6.30	7.00 to 7.70		
Cc1ncsc1-c1ccc([C@H](C)NC(=O)[C@@H]2C[C@@H](O)CN2C(=O)[C@@H](NC(=O)CCCCCCC(=O)N2CCN(C[C@]3(C)CCC(c4ccc(Cl)cc4)=C(CN4CCN(c5ccc(C(=O)NS(=O)(=O)c6ccc(N[C@H](CCN7CCOC8(CCC8)C7)CSc7ccccc7)c(S(=O)(=O)C(F)(F)F)c6)cc5)CC4)C3)CC2)C(C)(C)C)cc1 [Compound 93]	5.00 to 6.30	5.00 to 6.30		
Cc1ncsc1-c1ccc([C@H](C)NC(=O)[C@@H]2C[C@@H](O)CN2C(=O)[C@@H](NC(=O)CCCCCCC(=O)N2CCN(C[C@]3(C)CCC(c4ccc(Cl)cc4)=C(CN4CCN(c5ccc(C(=O)NS(=O)(=O)c6ccc(N[C@H](CCN7C[C@H]8COC[C@H]8C7)CSc7ccccc7)c(S(=O)(=O)C(F)(F)F)c6)cc5)CC4)C3)CC2)C(C)(C)C)cc1 [Compound 95]	> 7.70	> 7.70		
